From patent US7041470B2, “Method of assaying the susceptibility of biofilms to anti-microbial agents” (University Technologies International, Inc., priority 1996, dated 2006)

Legend:
[1] = test system: staphylococcus epidermidis biofilm; experiment: staphylococcus epidermidis biofilm, optical density reading of turbidity; assay type: cell-based; conditions: 490 nm
Protocol: (§1) Up to 8 different antibiotics or biocides can be tested by using 1 row (A-H) for each antimicrobial reagent. […] Rinse the remaining projections in PBS using a troughed vessel 20 and place the colonized projections into the 96 well antibiotic plate and incubate overnight at 37° C. […] (3) From the freshly sonicated plate remove 0.02 ml of the medium from each well and spot plate neat; and 0.025 ml from each well to prepare a serial dilution (10^−1 to 10^−6) and spot plate 0.02 ml (dilutions can be done in microtiter plates, one for each antibiotic). Place the plate containing the remaining medium and bacteria to incubate at 37° C., overnight. Day 4: Assay the sessile survival, by for example reading the plate incubated overnight at 490 nm or by counting the colonies on the plates to determine the actual number of surviving bacteria, or by using some other method known in the art.

[2] = test system: staphylococcus epidermidis planktonic bacteria; experiment: staphylococcus epidermidis planktonic bacteria, optical density reading of turbidity; assay type: cell-based; conditions: 490 nm
Protocol: (§2) Up to 8 different antibiotics or biocides can be tested by using 1 row (A-H) for each antimicrobial reagent. […] Rinse the remaining projections in PBS using a troughed vessel 20 and place the colonized projections into the 96 well antibiotic plate and incubate overnight at 37° C.

[3] = test system: staphylococcus aureus biofilm; experiment: staphylococcus aureus biofilm on projections, antibiotic treatment, manual cfu count; assay type: cell-based
Protocol: (§3) Up to 8 different antibiotics or biocides can be tested by using 1 row (A-H) for each antimicrobial reagent. […] Rinse the remaining projections in PBS using a troughed vessel 20 and place the colonized projections into the 96 well antibiotic plate and incubate overnight at 37° C. […] (3) From the freshly sonicated plate remove 0.02 ml of the medium from each well and spot plate neat; and 0.025 ml from each well to prepare a serial dilution (10^-1 to 10^-6) and spot plate 0.02 ml (dilutions can be done in microtiter plates, one for each antibiotic). Place the plate containing the remaining medium and bacteria to incubate at 37° C., overnight. Day 4: Assay the sessile survival, by for example reading the plate incubated overnight at 490 nm or by counting the colonies on the plates to determine the actual number of surviving bacteria, or by using some other method known in the art. Several different conventional methods may be used to count the bacteria. It may be done by incubating the sonicated bacteria, taking serial dilutions and visually counting the colony forming units, or automated methods may be used, as for example using an optical reader to determine optical density. […] In the case of using vital dye technology, the biofilm need not be further incubated. In a further embodiment, the assay may be carried out by sonicating the cells until they lyse and release ATP and then adding luciferase to produce a mechanically readable light output. In a still further embodiment, the assay may be carried out directly on the biofilm on the projections using a confocal microscope, although it should be considered that this is difficult to automate. […] Examples are given to show a comparison between counts of planktonic bacteria and counts of sessile bacteria for the same growth conditions. […] The antibiotic was applied to the wells 2-12 of the rows A-G of a 96 well plate as follows: well 2: no antibiotic, well 3: 1000 μg/mL, well 4: 500 μg/mL . . . well 12: 2 μg/mL.

[4] = test system: staph. aureus biofilm; experiment: staph. aureus biofilm, optical density reading of turbidity; assay type: cell-based, staphylococcus aureus; conditions: 490 nm
Protocol: as §1

[5] = test system: staph. aureus planktonic bacteria; experiment: staph. aureus planktonic bacteria, optical density reading of turbidity; assay type: cell-based, staphylococcus aureus; conditions: 490 nm
Protocol: as §2

[6] = test system: Escherichia coli biofilm; experiment: Escherichia coli biofilm on projections, antibiotic treatment, manual cfu count; assay type: cell-based
Protocol: as §3, with “(10^−1” for “(10^-1”, “10^−6)” for “10^-6)”, “The initial biofilm was colonized for four hours. The” for “The”, “A-H” for “A-G”, “μg/mL. 250 μL final volume of diluted antibiotic was applied to the wells.” for “μg/mL.”

[7] = test system: Escherichia coli biofilm; experiment: Escherichia coli biofilm, optical density reading of turbidity; assay type: cell-based; conditions: 490 nm
Protocol: as §1

[8] = test system: Escherichia coli planktonic bacteria; experiment: Escherichia coli planktonic bacteria, optical density reading of turbidity; assay type: cell-based; conditions: 490 nm
Protocol: as §2

[9] = well 5 of doubling dilutions, well 3: 1000 μg/mL to well 12: 2 μg/mL
[10] = well 6 of doubling dilutions, well 3: 1000 μg/mL to well 12: 2 μg/mL ([…] implied)
[11] = well 7 of doubling dilutions, well 3: 1000 μg/mL to well 12: 2 μg/mL
[12] = well 8 of doubling dilutions, well 3: 1000 μg/mL to well 12: 2 μg/mL
[13] = well 9 of doubling dilutions, well 3: 1000 μg/mL to well 12: 2 μg/mL
[14] = well 10 of doubling dilutions, well 3: 1000 μg/mL to well 12: 2 μg/mL ([…] implied)
[15] = well 11 of doubling dilutions, well 3: 1000 μg/mL to well 12: 2 μg/mL
[16] = well 3: 1000 μg/mL antibiotic, biofilm colonized four hours
[17] = well 4: 500 μg/mL antibiotic, biofilm colonized four hours

SMILES: CC(C)(O/N=C(\C(=O)N[C@@H]1C(=O)N2C(C(=O)[O-])=C(C[n+]3ccccc3)CS[C@H]12)c1csc(N)n1)C(=O)O [F, ceftazidine]
- optical density reading of turbidity, staphylococcus epidermidis biofilm ([1]; well 3: 1000 μg/mL antibiotic): .897
- optical density reading of turbidity, staphylococcus epidermidis biofilm ([1]; well 4: 500 μg/mL antibiotic): .888
- optical density reading of turbidity, staphylococcus epidermidis biofilm [1, 9]: 1.013
- optical density reading of turbidity, staphylococcus epidermidis biofilm [1, 10]: .855
- optical density reading of turbidity, staphylococcus epidermidis biofilm [1, 11]: .992
- optical density reading of turbidity, staphylococcus epidermidis biofilm [1, 12]: .903
- optical density reading of turbidity, staphylococcus epidermidis biofilm [1, 13]: .920
- optical density reading of turbidity, staphylococcus epidermidis biofilm [1, 14]: .850
- optical density reading of turbidity, staphylococcus epidermidis biofilm [1, 15]: .843
- optical density reading of turbidity, staphylococcus epidermidis biofilm ([1]; well 12: 2 μg/mL antibiotic): .902
- optical density reading of turbidity, staphylococcus epidermidis planktonic bacteria ([2]; well 3: 1000 μg/mL antibiotic): .359
- optical density reading of turbidity, staphylococcus epidermidis planktonic bacteria ([2]; well 4: 500 μg/mL antibiotic): .383
- optical density reading of turbidity, staphylococcus epidermidis planktonic bacteria [2, 9]: .397
- optical density reading of turbidity, staphylococcus epidermidis planktonic bacteria [2, 10]: .410
- optical density reading of turbidity, staphylococcus epidermidis planktonic bacteria [2, 11]: .466
- optical density reading of turbidity, staphylococcus epidermidis planktonic bacteria [2, 12]: .540
- optical density reading of turbidity, staphylococcus epidermidis planktonic bacteria [2, 13]: .615
- optical density reading of turbidity, staphylococcus epidermidis planktonic bacteria [2, 14]: .627
- optical density reading of turbidity, staphylococcus epidermidis planktonic bacteria [2, 15]: .694
- optical density reading of turbidity, staphylococcus epidermidis planktonic bacteria ([2]; well 12: 2 μg/mL antibiotic): .853
- manually counted cfu, staphylococcus aureus biofilm ([3]; well 3: 1000 μg/mL antibiotic): 0 cfu
- manually counted cfu, staphylococcus aureus biofilm ([3]; well 4: 500 μg/mL antibiotic): 1.0 × 10^2 cfu
- manually counted cfu, staphylococcus aureus biofilm [3, 9]: 0 cfu
- manually counted cfu, staphylococcus aureus biofilm [3, 10]: 1.0 × 10^2 cfu
- manually counted cfu, staphylococcus aureus biofilm [3, 11]: 50 cfu
- manually counted cfu, staphylococcus aureus biofilm [3, 12]: 0 cfu
- manually counted cfu, staphylococcus aureus biofilm [3, 13]: 0 cfu
- manually counted cfu, staphylococcus aureus biofilm [3, 14]: 1.0 × 10^5 cfu
- manually counted cfu, staphylococcus aureus biofilm [3, 15]: 4.0 × 10^5 cfu
- manually counted cfu, staphylococcus aureus biofilm ([3]; well 12: 2 μg/mL antibiotic): 9.0 × 10^5 cfu
- optical density reading of turbidity, staph. aureus biofilm ([4]; well 3: 1000 μg/mL antibiotic): .779
- optical density reading of turbidity, staph. aureus biofilm ([4]; well 4: 500 μg/mL antibiotic): .830
- optical density reading of turbidity, staph. aureus biofilm [4, 9]: .777
- optical density reading of turbidity, staph. aureus biofilm [4, 10]: .739
- optical density reading of turbidity, staph. aureus biofilm [4, 11]: .719
- optical density reading of turbidity, staph. aureus biofilm [4, 12]: .840
- optical density reading of turbidity, staph. aureus biofilm [4, 13]: .806
- optical density reading of turbidity, staph. aureus biofilm [4, 14]: .882
- optical density reading of turbidity, staph. aureus biofilm [4, 15]: .924
- optical density reading of turbidity, staph. aureus biofilm ([4]; well 12: 2 μg/mL antibiotic): .916
- optical density reading of turbidity, staph. aureus planktonic bacteria ([5]; well 3: 1000 μg/mL antibiotic): .073
- optical density reading of turbidity, staph. aureus planktonic bacteria ([5]; well 4: 500 μg/mL antibiotic): .076
- optical density reading of turbidity, staph. aureus planktonic bacteria [5, 9]: .081
- optical density reading of turbidity, staph. aureus planktonic bacteria [5, 10]: .079
- optical density reading of turbidity, staph. aureus planktonic bacteria [5, 11]: .076
- optical density reading of turbidity, staph. aureus planktonic bacteria [5, 12]: .079
- optical density reading of turbidity, staph. aureus planktonic bacteria [5, 13]: .078
- optical density reading of turbidity, staph. aureus planktonic bacteria [5, 14]: .111
- optical density reading of turbidity, staph. aureus planktonic bacteria [5, 15]: .564
- optical density reading of turbidity, staph. aureus planktonic bacteria ([5]; well 12: 2 μg/mL antibiotic): .717
- manually counted cfu, Escherichia coli biofilm [6, 16]: 0 cfu
- manually counted cfu, Escherichia coli biofilm [6, 17]: 0 cfu
- manually counted cfu, Escherichia coli biofilm [6, 9]: 0 cfu
- manually counted cfu, Escherichia coli biofilm [6, 10]: 0 cfu
- manually counted cfu, Escherichia coli biofilm [6, 11]: 0 cfu
- manually counted cfu, Escherichia coli biofilm [6, 12]: 0 cfu
- manually counted cfu, Escherichia coli biofilm [6, 13]: 0 cfu
- optical density reading of turbidity, Escherichia coli biofilm ([7]; well 3: 1000 μg/mL antibiotic): .121
- optical density reading of turbidity, Escherichia coli biofilm ([7]; well 4: 500 μg/mL antibiotic): .123
- optical density reading of turbidity, Escherichia coli biofilm [7, 9]: 1.158
- optical density reading of turbidity, Escherichia coli biofilm [7, 10]: .121
- optical density reading of turbidity, Escherichia coli biofilm [7, 12]: .120
- optical density reading of turbidity, Escherichia coli biofilm [7, 13]: .123
- optical density reading of turbidity, Escherichia coli biofilm [7, 14]: 1.152
- optical density reading of turbidity, Escherichia coli biofilm [7, 15]: 1.249
- optical density reading of turbidity, Escherichia coli biofilm ([7]; well 12: 2 μg/mL antibiotic): 1.268
- optical density reading of turbidity, Escherichia coli planktonic bacteria ([8]; well 3: 1000 μg/mL antibiotic): .123
- optical density reading of turbidity, Escherichia coli planktonic bacteria ([8]; well 4: 500 μg/mL antibiotic): .129
- optical density reading of turbidity, Escherichia coli planktonic bacteria [8, 9]: .134
- optical density reading of turbidity, Escherichia coli planktonic bacteria [8, 10]: .137
- optical density reading of turbidity, Escherichia coli planktonic bacteria [8, 11]: .128
- optical density reading of turbidity, Escherichia coli planktonic bacteria [8, 12]: .137
- optical density reading of turbidity, Escherichia coli planktonic bacteria [8, 13]: .137
- optical density reading of turbidity, Escherichia coli planktonic bacteria [8, 14]: .140
- optical density reading of turbidity, Escherichia coli planktonic bacteria [8, 15]: .147
- optical density reading of turbidity, Escherichia coli planktonic bacteria ([8]; well 12: 2 μg/mL antibiotic): .152

SMILES: O=C(O)c1cn(C2CC2)c2cc(N3CCNCC3)c(F)cc2c1=O [G, Ciprofloxacin]
- manually counted cfu, staphylococcus aureus biofilm ([3]; well 3: 1000 μg/mL antibiotic): 0 cfu
- manually counted cfu, staphylococcus aureus biofilm ([3]; well 4: 500 μg/mL antibiotic): 0 cfu
- manually counted cfu, staphylococcus aureus biofilm [3, 9]: 0 cfu
- manually counted cfu, staphylococcus aureus biofilm [3, 10]: 50 cfu
- manually counted cfu, staphylococcus aureus biofilm [3, 11]: 1.0 × 10^2 cfu
- manually counted cfu, staphylococcus aureus biofilm [3, 12]: 50 cfu
- manually counted cfu, staphylococcus aureus biofilm [3, 13]: 0 cfu
- manually counted cfu, staphylococcus aureus biofilm [3, 14]: 0 cfu
- manually counted cfu, staphylococcus aureus biofilm [3, 15]: 0 cfu
- manually counted cfu, staphylococcus aureus biofilm ([3]; well 12: 2 μg/mL antibiotic): 0 cfu
- manually counted cfu, Escherichia coli biofilm [6, 16]: 0 cfu
- manually counted cfu, Escherichia coli biofilm [6, 17]: 0 cfu
- manually counted cfu, Escherichia coli biofilm [6, 9]: 0 cfu
- manually counted cfu, Escherichia coli biofilm [6, 10]: 0 cfu
- manually counted cfu, Escherichia coli biofilm [6, 11]: 0 cfu
- manually counted cfu, Escherichia coli biofilm [6, 12]: 0 cfu
- manually counted cfu, Escherichia coli biofilm [6, 14]: 0 cfu
- manually counted cfu, Escherichia coli biofilm [6, 15]: 0 cfu
